Series [1] addresses 5-HT2A receptor (Homo sapiens, UniProt P28223). The series can be described thus: Functional activity, FLIPR calcium assay in CHO cells expressing human 5-HT2A. The series is classed as cell-based. More on the design: expressed in transfected cells; host or cells: CHO cells. The settings on record: for Emax: CHO, read-out: h5-HT2A Relative Efficacy (%). As to the method:
(§1) The functional activity of compounds of formula (I) was assayed using a Fluorimetric Imaging Plate reader (FLIPR). CHO cells expressing the human 5-HT2C or human 5-HT2A receptors were counted and plated into standard 96 well microtitre plates on the day before testing to give a confluent monolayer. The cells were then dye loaded with the calcium sensitive dye, Fluo-3-AM. Unincorporated dye was removed using an automated cell washer to leave a total volume of 100 μL/well of assay buffer (Hanks balanced salt solution containing 20 mM Hepes and 2.5 mM probenecid). The drug (dissolved in 50 μL of the assay buffer) was added at a rate of 70 μL/sec to each well of the FLIPR 96 well plate during fluorescence measurements. The measurements were taken at 1 sec intervals and the maximum fluorescent signal was measured (approx 10-15 secs after drug addition) and compared with the response produced by 10 μM 5-HT (defined as 100%) to which it was expressed as a percentage response (relative efficacy). Dose response curves were constructed using Graphpad Prism (Graph Software Inc.).

For series [2], the target named is T1, 5-HT2C receptor (Homo sapiens, UniProt P28335).
T1 sequence (P28335 33-458): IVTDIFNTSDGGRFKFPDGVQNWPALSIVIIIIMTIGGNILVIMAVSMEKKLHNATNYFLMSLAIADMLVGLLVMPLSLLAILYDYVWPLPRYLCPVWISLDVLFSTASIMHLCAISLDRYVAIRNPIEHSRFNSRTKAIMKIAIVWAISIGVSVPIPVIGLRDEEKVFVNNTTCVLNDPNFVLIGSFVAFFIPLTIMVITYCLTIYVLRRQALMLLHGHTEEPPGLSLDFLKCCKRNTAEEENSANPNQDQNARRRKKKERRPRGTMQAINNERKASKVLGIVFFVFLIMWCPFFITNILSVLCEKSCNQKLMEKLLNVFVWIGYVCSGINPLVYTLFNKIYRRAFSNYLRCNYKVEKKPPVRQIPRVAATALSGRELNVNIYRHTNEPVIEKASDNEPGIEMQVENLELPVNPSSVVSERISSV
Put plainly: Functional activity, FLIPR calcium assay in CHO cells expressing human 5-HT2C. The series is classed as cell-based. Further details: expressed in transfected cells; host or cells: CHO cells. The settings on record: for Emax: CHO, read-out: h5-HT2C Relative Efficacy (%). As to the method: as §1

The mark [3] stands for this setting: FLIPR, CHO cells, Fluo-3-AM, read-out: h5-HT2C EC50.

pEC50: −log10 of the molar value. Where a name gives a salt, the structure may show the parent alone. Read-outs that look alike come from different tables or passages of the source.

Here are results for 44 compounds from US6380238B1, “Indoline derivatives as 5-HT2B and or 5-HTC receptor ligands” (Vernalis Research Limited, priority 1998, dated 2002).

Sequence of 5-HT2A receptor (P28223 whole entry): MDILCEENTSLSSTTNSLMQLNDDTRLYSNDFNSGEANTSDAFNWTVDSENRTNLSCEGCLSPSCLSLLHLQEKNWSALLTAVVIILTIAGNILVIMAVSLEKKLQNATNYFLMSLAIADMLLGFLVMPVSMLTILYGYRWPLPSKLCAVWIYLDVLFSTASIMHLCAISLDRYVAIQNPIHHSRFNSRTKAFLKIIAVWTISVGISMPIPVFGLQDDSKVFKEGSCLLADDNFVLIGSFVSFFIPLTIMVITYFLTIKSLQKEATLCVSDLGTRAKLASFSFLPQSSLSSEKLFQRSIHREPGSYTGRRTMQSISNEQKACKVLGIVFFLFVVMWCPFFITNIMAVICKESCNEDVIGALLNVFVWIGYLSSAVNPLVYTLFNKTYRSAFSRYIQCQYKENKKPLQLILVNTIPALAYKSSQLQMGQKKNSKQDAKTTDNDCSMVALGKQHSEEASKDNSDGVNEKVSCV

With `CC(C)Sc1ccc2c(c1)N(C[C@H](C)N)CC2` [Example 42], in series [1], the pEC50 was 5.38 and the Emax is 43%. In addition, in series [2], the pEC50 was 7.27 and the Emax is 88%.
The compound `C[C@@H](CN1CCc2ccc(Br)cc21)NCc1ccncc1` (as salt: HCl) came in with a melting point of 202 to 204 °C.
The compound `C[C@H](N)CN1CCc2c(F)cccc21` (as salt: fumarate) [Example 35] registered a melting point of 167 to 168 °C.
Turning to `CSc1ccc2c(c1)N(C[C@H](C)N)CC2` [Example 39], in series [1], the pEC50 was 6.59 and the Emax stood at 75%. Moreover, in series [2], the negative logarithm of the EC50 (pEC50) is 8.40 and the Emax worked out at 87%.
With `C[C@@H](N)CN1CCc2ccc(Br)cc21` [Example 18], the Emax in series [1] came out at 7%; in series [2], 27%. Besides, in series [2], the pEC50 was 6.06.
As to `C[C@H](N)CN1CCc2ccc(Cl)c(Cl)c21` [Example 23], in series [1], the pEC50 was 5.87 and the Emax came to 34%. For the same compound, in series [2], the pEC50 was 6.45 and the Emax was 76%.
`C[C@H](N)CN1CCc2ccc(C(F)(F)F)cc21` (as salt: fumarate) [Example 24] had a melting point of 197 to 199 °C.
In the case of `C[C@H](N)CN1CCc2ccc(Cl)c(F)c21` [Example 27], in series [1], the pEC50 was 5.70 and the Emax worked out at 41%. In series [2], the pEC50 is 6.63 and the Emax was determined as 75%.
For `C[C@@H](N)CN1CCc2cccc(Br)c21` [Example 19], in series [1], the Emax is 21%. Besides, in series [2], the pEC50 is 5.42 and the Emax was 34%.
As for `C[C@@H](N)CN1CCc2ccc(C(F)(F)F)cc21` (as salt: fumarate) [Example 26], the melting point is 196 to 197 °C.
As for `C[C@H](N)CN1CCc2c(Cl)cccc21` [Example 38], in series [1], the pEC50 was 5.59 and the Emax came to 26%. For the same compound, in series [2], the pEC50 was 6.49 and the Emax came out at 63%.
For `CC(C)Sc1ccc2c(c1)N(C[C@H](C)N)CC2` (as salt: fumarate) [Example 42], the melting point is 164 to 165 °C.
The same measure, in the same setting: with `C[C@H](N)CN1CCc2cc(F)ccc21` (as salt: fumarate) [Example 29] the figure was 175 to 176 °C.
For `Cc1cccc2c1CCN2C[C@H](C)N` [Example 32], in series [1], the negative-log EC50 (pEC50) was 5.82 and the Emax amounted to 26%. Besides, in series [2], the pEC50 is 6.21 and the Emax stood at 63%.
`CC(C)CN[C@@H](C)CN1CCc2ccc(Br)cc21` (as salt: HCl) came in with a melting point of 151 to 153 °C.
As for `C[C@H](N)CN1CCc2ccc(F)cc21` [Example 9], in series [1], the pEC50 is 5.25 and the Emax amounted to 52%. For the same compound, in series [2], the negative logarithm of the EC50 (pEC50) is 6.60 and the Emax is 89%.
With `NCCN1CCc2ccc([N+](=O)[O-])cc21` [Example 53, 2-(6-Nitroindolin-1-yl)-1-ethylamine Fumarate], the Emax amounted to 20% in series [1] and 86% in series [2]. In addition, the negative logarithm of the EC50 (pEC50) was 5.64 in series [1] (FLIPR, CHO cells, Fluo-3-AM, read-out: h5-HT2A EC50) and 6.58 in series [2] (setting [3]).
Regarding `C[C@H](N)CN1CCc2ccc(N3CCOCC3)cc21` [Example 49, (S)-1-[6-(4-Morpholinyl)indolin-1-yl]-2-propylamine Fumarate], the Emax in series [1] was determined as 5%; in series [2], 69%. Also, in series [2] (setting [3]), the pEC50 was 5.26.
Turning to `CCc1cccc2c1N(C[C@H](C)N)CC2` (as salt: fumarate) [Example 37], the melting point fell in the range of 182 to 183 °C.
Take `Cc1ccc2c(c1)N(C[C@H](C)N)CC2` [Example 64, (S)-1-(6-Methylindolin-1-yl)-2-propylamine Fumarate]: in series [1], the Emax was found to be 30%. In series [2], the pEC50 was 6.52 and the Emax was 66%.
On to `C[C@H](N)CN1CCc2cc(Br)ccc21` [Example 33], for which, in series [1], the pEC50 was 5.53 and the Emax amounted to 51%. Besides, in series [2], the negative-log EC50 (pEC50) is 6.59 and the Emax came to 75%.
In turn, `CC(N)CN1CCc2cc(OCc3ccccc3)ccc21` (stereo not shown) (as salt: fumarate) (hydrate or solvate) yielded a melting point of 143 to 144 °C.
Take `C[C@H](N)CN1CCc2cc(Cl)ccc21` [Example 28]: in series [1], the pEC50 is 5.81 and the Emax is 63%. In addition, in series [2], the negative logarithm of the EC50 (pEC50) was 6.62 and the Emax worked out at 75%.
In the case of `C[C@H](N)CN1CCc2c(F)cccc21` [Example 35], the Emax came out at 30% in series [1] and 51% in series [2]. Besides, the pEC50 in series [2] is 6.14.
As for `C[C@H](N)CN1CCc2cc(F)ccc21` [Example 29], the negative-log EC50 (pEC50) was 5.50 in series [1] and 6.30 in series [2]. Further, the Emax in series [1] was determined as 18%; in series [2], 68%.
`C[C@H](N)CN1CCc2cc(Cl)ccc21` (as salt: fumarate) [Example 28]: the melting point is 207 to 210 °C.
Same read-out and setting: the value for `Cc1ccc2c(c1)N(CC(C)N)CC2` (stereo not shown) (as salt: HCl) was 178 to 179 °C.
Take `Cc1cc2c(cc1Cl)N(C[C@H](C)N)CC2` (as salt: fumarate) [Example 14]: the melting point was 172 to 174 °C.
On the same count and under the same terms, with `CCCSc1ccc2c(c1)N(C[C@H](C)N)CC2` (as salt: fumarate) [Example 41] the figure was 147 to 148 °C; with `C[C@H](N)CN1CCc2ccc(-c3ccccc3)cc21.O=C(O)/C=C/C(=O)O`, 153 to 154 °C; with `COc1ccc2c(c1)N(C[C@H](C)N)CC2` (as salt: fumarate) [Example 13], 175 to 176 °C.
Regarding `C[C@H](N)CN1CCc2cc(F)cc(Cl)c21` [Example 17], the pEC50 in series [1] is 5.12; in series [2], 6.21. Besides, the Emax in series [1] is 40%; in series [2], 76%.
With `C[C@H](N)CN1CCc2cccc(Br)c21` [Example 20], in series [1], the Emax amounted to 17%. Also, in series [2], the pEC50 is 6.12 and the Emax turned out to be 68%.
With `Cc1cc2c(cc1F)CCN2C[C@H](C)N` [Example 62, (S)-1-(5-Fluoro-6-methylindolin-1-yl)-2-propylamine Fumarate], in series [2], the pEC50 is 6.48 and the Emax is 54%.
On to `CSc1cc2c(cc1F)CCN2CC(C)N` (stereo not shown) [Example 30], for which, in series [1], the pEC50 was 7.14 and the Emax is 88%. Moreover, in series [2], the negative-log EC50 (pEC50) is 10.00 and the Emax stood at 95%.
Consider `C[C@H](N)CN1CCc2ccc(-c3cccnc3)cc21` [Example 47], for which, in series [1], the Emax is 5%. Also, in series [2], the pEC50 was 5.45 and the Emax came to 33%.
Turning to `Cc1cc2c(cc1Cl)N(C[C@H](C)N)CC2` [Example 14], the values for the pEC50 in series [1] and in series [2] were 5.43 and 5.67, respectively. The Emax in series [1] was 55%; in series [2] it was 71%.
For `C[C@H](N)CN1CCc2cc(F)c(I)cc21` [Example 61, (S)-1-(5-Fluoro-6-iodoindolin-1-yl)-2-propylamine Fumarate], in that order: 5.66, 7.59, 49% and 68%.
On to `C[C@H](N)CN1CCc2cc(F)c(C(F)(F)F)cc21` [Example 60, (S)-1-(5-Fluoro-6-trifluoromethylindolin-1-yl)-2-propylamine Fumarate], for which, in series [2], the pEC50 was 7.44 and the Emax turned out to be 81%.
With `CCCSc1ccc2c(c1)N(C[C@H](C)N)CC2` [Example 41], in series [2], the negative-log EC50 (pEC50) is 7.17 and the Emax is 83%.
For the compound `CCSc1ccc2c(c1)N(C[C@H](C)N)CC2` [Example 40], in series [1], the negative-log EC50 (pEC50) is 6.08 and the Emax worked out at 64%. For the same compound, in series [2], the pEC50 was 8.52 and the Emax amounted to 95%.
For `CCSc1cc2c(cc1F)CCN2C[C@H](C)N` [Example 31] the same measures were 6.50, 72%, 8.70 and 92%.
For `COc1ccc2c(c1)N(CC(C)N)CC2` (racemic) [Example 2, (RS)-1-(6-Methoxyindolin-1-yl)-2-propylamine Hydrochloride], in that order: 6.00, 63%, 7.00 and 77%.
In the case of `CCc1cccc2c1N(C[C@H](C)N)CC2` [Example 37], the negative-log EC50 (pEC50) in series [1] was 5.56; in series [2] it was 6.41. For the same compound, the Emax amounted to 27% in series [1] and 69% in series [2].

A word on the pEC50: it is −log10 of the EC50, conventionally taken in molar units. The term melting point denotes the temperature of the solid-liquid transition.
